The values below come from US9308222B2, “Formulas comprising highly soluble elements and vitamins for the prevention and amelioration of osteoporosis” (priority 2008, dated 2016).

For series [1] the following is noted: fortified foods, dual isotope techniques; cited from earlier work.
For series [2] the following is noted: humans; cited from earlier work.
The conditions of series [3]: rats; cited from earlier work.
The conditions of series [4]: according to the literature; cited from earlier work.
The nature of series [5]: Calcium, magnesium and zinc balance in rats receiving calcium free diet. An excerpt: Male Sprague-Dawley rats (about 6-7 weeks), with an initial weight between 220 g to 250 g, were randomly divided into different treatment groups. All the rats were housed in individual metabolic cages in a temperature-controlled room. Each rat received free access to the normal diet (Table 34) before the experiment. Both normal and calcium free diets (Table 34) were used in this set of studies. De-ionized water was provided ad libitum. All the rats were weighed before treatment.
In each study, there were seven treatment groups. […] Rats participating in the normal diet study received normal diet ad libitum throughout. Rats participating in the group of calcium free diet received the calcium free food ad libitum starting five days before and throughout treatment. In both study groups, animals received one dose a day for five days. […] Values of dosage and dietary intake were measured for the calculation of elemental balance. […] Daily elemental dosages, similar to that of human's, are 53.14 mg/kg for calcium, 0.38 to 55 mg/kg/day for magnesium and 0.017 to 2.5 mg/kg/day for zinc. […] The vehicle for preparing each dose was de-ionized water. The concentration of calcium in all dosage preparations was 15.94 mg/mL. One mL of each preparation was administered by gavage. Body weight, elemental dosage and diet consumption were recorded daily.
Animals were housed individually in a metabolic cage five days before the study. Food consumption was evaluated daily. Urine and feces were collected daily for four days and the content of calcium, magnesium and zinc was determined. On Day 5, each animal received its treatment. […] Immediately after blood collection, the animal was then sacrificed with an overdose of isoflourane. Each blood sample was centrifuged at 1900 rpm at room temperature; plasma was harvested and stored at −20° C. until analysis. Urine was measured daily; it was diluted with de-ionized water, filtered and an aliquot was stored at −20° C. until analysis. Daily fecal output was collected and lyophilized. Each sample was weighed and digested using a mixture of three volume of nitric acid and one volume of perchloric acid. For every gram of dried feces, 10 mL of acid mixture was added. Each sample was digested for three days. The volume of the digested sample was measured and an aliquot of the digest was stored at −20° C. until analysis. The content of calcium, magnesium and zinc in plasma, feces and urine were determined using ICP-OES.
Cumulated calcium balance and % cumulated net calcium balance were calculated using equations (1) and (2), except, the sum of daily intake and excretion was used for calculation. The balance for magnesium and zinc was also calculated using the concept of equations (1) and (2). Cumulated elemental balance and % cumulated net elemental balance were calculated in a similar fashion as described above.
All results were analyzed using two-way ANOVA. […] The data are presented as mean±S.D. and mean±S.E.M. in tables and figures, respectively.

Consider `[O]=[Zn]` [zinc oxide], for which the Bioavailability of zinc result in series [1] was “approximately 24%”. `O=C([O-])[O-].[Ca+2]` [calcium carbonate]: in series [2], the “Amount of calcium absorbed (bioavailability)” value is 24%.

`[O]=[Mg]` [magnesium oxide]: the Bioavailability of magnesium in series [3] was 50%. For the compound `O=C([O-])CC(O)(CC(=O)[O-])C(=O)[O-].O=C([O-])CC(O)(CC(=O)[O-])C(=O)[O-].[Ca+2].[Ca+2].[Ca+2]` [calcium citrate], the Bioavailability of calcium in series [4] is listed as 30%. Calcium Acetate: the “Bioavailability of calcium compared to calcium carbonate” value in series [5] (Tables 36 and 40, dependent on the diet condition) was “at least 2 fold”. Besides, the “Cumulative net percentage of calcium” value in series [5] (calcium free diet, Day 1) is −30.6 ± 51.3 ^ %; in series [5] (calcium free diet, Day 2) it was −9.88 ± 26.5 ^ %; in series [5] (calcium free diet, Day 3) it was 4.88 ± 24.0 ^ %. Moreover, the “Cumulative net percentage of calcium (calcium retention)” value in series [5] (calcium free diet, Day 4) is recorded as 11.1 ± 20.0 ^ %.
